“And” between values parts separate entries of the source, which are not always exact repeats. Equal values may be shown once.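 Tested at 5 concentrations; 48 h exposure; 96-well plates; endpoints linearly interpolated, else capped at highest concentration. Abbreviation: GI50, concentration required for 50% inhibition of growth. TGI is the concentration that stops growth completely.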
Key:
Experiment in all cases: DTP human tumour cell line panel, 48 h
[1] = tested on: T-47D breast
[2] = tested on: HOP-18 NSCLC
[3] = tested on: HS 578T breast
[4] = tested on: XF 498 CNS
[5] = tested on: OVCAR-3 ovarian
[6] = tested on: NCI/ADR-RES ovarian
[7] = tested on: M19-MEL melanoma
[8] = tested on: BT-549 breast
[9] = tested on: MDA-MB-435
[10] = tested on: SK-MEL-28 melanoma

Structure (SMILES)	GI50 [1]	TGI [1]	GI50 [2]	TGI [2]	TGI [3]	GI50 [4]	TGI [4]	GI50 [5]	TGI [5]	GI50 [6]	TGI [6]	GI50 [7]	TGI [7]	TGI [8]	GI50 [9]	TGI [9]	GI50 [10]	TGI [10]	GI50 [3]	GI50 [8]
O=C(O)CCCc1ccc(N(CCCl)CCCl)cc1	27.3 µM	333 µM and 292 µM	17.7 µM	> 70 µM and 267 µM	570 µM and 312 µM	12.1 µM	31.9 µM and 158 µM	18.1 µM and 133 µM	56.7 µM and 322 µM and 209 µM	39.4 µM	329 µM and 118 µM	22.3 µM	51.8 µM and 238 µM	290 µM and 289 µM	173 µM	270 µM and 242 µM	21.5 µM	42.1 µM and 267 µM	–	–
O=C(Nc1ccccc1[N+](=O)[O-])c1ccccc1	–	–	–	> 100 µM	–	–	> 100 µM	–	> 100 µM	–	–	–	> 100 µM	–	–	–	–	> 100 µM	–	–
COc1ccc(/C=C(/C(=O)O)c2cc(OC)c(OC)c(OC)c2)cc1	–	–	–	–	–	–	–	–	64.1 µM	–	–	–	> 100 µM	–	–	–	–	> 100 µM	–	–
CC(=O)OCCc1cccnc1/C=N/O	–	–	–	> 100 µM	–	–	> 100 µM	–	> 100 µM	–	–	–	> 100 µM	–	–	–	–	> 100 µM	–	–
COc1cc2c(c(O)c1C)C(=O)C(Cl)=CC2=O	–	5.22 µM	–	30.1 µM	97.4 µM	–	35.2 µM	–	24.3 µM	–	66.7 µM	–	20.9 µM	18.4 µM	–	16.4 µM	–	35.1 µM	–	–
NC1(CCCCCCCCCCC(=O)O)CNCCNCCNCCNC1	–	–	–	–	–	–	–	–	> 100 µM	–	–	–	> 100 µM	–	–	–	–	> 100 µM	–	–
C[C@]12CCC(=O)C=C1CC[C@@H]1C2CC[C@]2(C)NC(=O)C(C#N)CC12 (some centres undefined)	–	–	–	–	–	–	> 100 µM	–	> 100 µM	–	–	–	> 100 µM	–	–	–	–	> 100 µM	–	–
O=C(O/N=C1/CCC/C1=C\c1ccccc1)c1ccc([N+](=O)[O-])cc1	–	–	–	> 100 µM	–	–	–	–	> 100 µM	–	–	–	> 100 µM	–	–	–	–	> 100 µM	–	–
CN1CCCNCCN(CCc2ccccn2)CCCN(C)CC1	–	–	–	> 100 µM	–	–	> 100 µM	–	> 100 µM	–	–	–	> 100 µM	–	–	–	–	> 100 µM	–	–
O=C1CSC(N2CCN(c3cccc(Cl)c3)CC2)=N1	> 100 µM	> 100 µM	–	–	> 100 µM	–	–	> 100 µM	> 100 µM	> 100 µM	> 100 µM	–	–	> 100 µM	> 100 µM	> 100 µM	> 100 µM	> 100 µM	> 100 µM	> 100000 nM
O=C(N/N=C/c1cccc(O)c1O)N/N=C/c1cccc(O)c1O	–	–	–	67.1 µM	–	–	> 100 µM	–	8.8 µM	–	–	–	> 100 µM	–	–	–	–	> 100 µM	–	–
C/C(=N\NC(N)=S)c1ccc(C)cc1C	–	–	–	> 100 µM	–	–	> 100 µM	–	> 100 µM	–	–	–	> 100 µM	–	–	–	–	–	–	–
Fc1ccc(-c2nn(-c3ccccc3)cc2-c2nc3ccccc3o2)cc1	37.3 µM	> 100 µM	–	–	66.5 µM	–	–	2.87 µM	48.7 µM	3.57 µM	> 100 µM	–	–	21.4 µM	1.79 µM	3.41 µM	13.4 µM	39.4 µM	6.48 µM	2970 nM
O=C1CCC(NC(=O)c2ccccc2)C(=O)N1 (centres undefined)	–	> 100 µM	–	–	> 100 µM	–	–	–	> 100 µM	–	> 100 µM	–	–	> 100 µM	–	> 100 µM	–	> 100 µM	–	–
CCOC(=O)c1cc(-c2ccc([N+](=O)[O-])cc2)n(-c2ccc(C(=O)O)c(O)c2)c1C	2.81 µM	11.4 µM	–	–	17 µM	–	–	2.86 µM	9.53 µM	3.8 µM	38.6 µM	–	–	18.1 µM	3.62 µM	14.6 µM	3.81 µM	14.4 µM	3.64 µM	3830 nM
CC1=C2[C@@H](CC1)[C@]1(C)O[C@@](C(C)C)(C[C@H]1OC(=O)[C@H](C)O)[C@H]2OC(=O)/C=C/c1ccccc1	5.38 µM	22.4 µM	–	–	0.378 µM	–	–	12.5 µM	26.1 µM	0.428 µM	16 µM	–	–	15.7 µM	15.5 µM	30.9 µM	16.5 µM	34.3 µM	0.0529 µM	888 nM

Reference: PubChem BioAssay (NCI)
